{"source": "patent US8299037B2", "about": "“Feed or pharmaceutical composition comprising apramycin or an adequate salt thereof” (Poulpharm B.V.B.A., priority 2007, dated 2012)", "key": {"[1]": {"system": "Histomonas meleagridis", "settings": "turkeys; cited from earlier work"}, "[2]": {"system": "Histomonas meleagridis", "experiment": "Prophylaxis of histomoniasis in turkey poults inoculated intracloacally, apramycin in feed (Example 1)", "format": "in vivo, turkeys", "description": "The objective of the study was to investigate the activity of apramycin as prophylactic agent against a Histomonas meleagridis strain isolated from an outbreak of histomoniasis in turkeys in Belgium (September 2005). The antibiotic (apramycin) was supplemented through the feed at 550 g of the test product/MT of feed (Ap 550) in the challenged birds. This medicated group was compared with an Infected Untreated Control (IUC) and an Uninfected Untreated Control group (UUC).\nSeventy five (75) one day old male animals (turkey poults) were enrolled in the study and randomly allocated to 3 groups of 25 animals per pen. During the whole study (from day 1 to day 38), Treatment 1 (UUC) and 2 (IUC) received standard animal (turkey) feed without supplementation, whereas Treatment 3, received feed supplemented with apramycin sulphate. On day 22, Treatments 2 and 3 were inoculated intracloacally with Histomonas meleagridis. From that day one, the animals were clinically observed on a daily base. At the end of the study, D38, all remaining animals were euthanized and necropsied and lesion scored for caeca and liver.\nAll animals (turkeys) died during the challenge period were necropsied to determine the cause of death. […] (see Table 1 and FIG. 1)."}, "[3]": {"system": "Histomonas meleagridis", "experiment": "Prophylaxis of histomoniasis in turkey poults inoculated intracloacally, apramycin in feed (Example 1)", "format": "in vivo", "settings": "live weight at the end of the study; 550 g/MT of feed, turkeys"}, "[4]": {"system": "Histomonas meleagridis", "settings": "cited from earlier work"}, "[5]": {"settings": "necropsy, 550 g/MT of feed, turkeys"}, "[6]": {"settings": "300 ppm, inoculated broiler chickens"}}, "note": "“Also recorded” adds a separate entry of the source.", "data": [{"smiles": "CN[C@@H]1[C@@H](O[C@H]2O[C@H](CO)[C@@H](N)[C@H](O)[C@H]2O)OC2C[C@@H](N)[C@@H](O[C@H]3[C@H](O)[C@@H](O)[C@H](N)C[C@@H]3N)OC2[C@@H]1O", "note": "(stereo partly drawn) [Ap 550, Apramycin]", "values": [{"measurement": "Treatment effect on histomoniasis (in words)", "setting": "[1]", "result": "No significant treatment effect"}, {"measurement": "Mortality due to histomoniasis (% Cumulative)", "setting": "[2]; D 7 PI, 550 g/MT of feed, turkeys", "result": 0.00, "unit": "%"}, {"measurement": "Mortality due to histomoniasis (% Cumulative)", "setting": "[2]; D 8 PI, 550 g/MT of feed, turkeys", "result": 0.00, "unit": "%"}, {"measurement": "Mortality due to histomoniasis (% Cumulative)", "setting": "[2]; D 9 PI, 550 g/MT of feed, turkeys", "result": 0.00, "unit": "%"}, {"measurement": "Mortality due to histomoniasis (% Cumulative)", "setting": "[2]; D 10 PI, 550 g/MT of feed, turkeys", "result": 0.00, "unit": "%"}, {"measurement": "Mortality due to histomoniasis (% Cumulative)", "setting": "[2]; D11 PI, 550 g/MT of feed, turkeys", "result": 0.00, "unit": "%"}, {"measurement": "Mortality due to histomoniasis (% Cumulative)", "setting": "[2]; D 12 PI, 550 g/MT of feed, turkeys", "result": 0.00, "unit": "%"}, {"measurement": "Mortality due to histomoniasis (% Cumulative)", "setting": "[2]; D 13 PI, 550 g/MT of feed, turkeys", "result": 0.00, "unit": "%"}, {"measurement": "Mortality due to histomoniasis (% Cumulative)", "setting": "[2]; D 14 PI, 550 g/MT of feed, turkeys", "result": 0.00, "unit": "%"}, {"measurement": "Mortality due to histomoniasis (% Cumulative)", "setting": "[2]; D 15 PI, 550 g/MT of feed, turkeys", "result": 0.00, "unit": "%"}, {"measurement": "Mortality due to histomoniasis (% Cumulative)", "setting": "[2]; D 16 PI, 550 g/MT of feed, turkeys", "result": 0.00, "unit": "%"}, {"measurement": "Mortality during the challenge period (in words)", "setting": "[2]; inoculated turkeys, apramycin continuously in the feed", "result": "significant effect in reducing the mortality; also recorded: not a single animal died"}, {"measurement": "Mean lesion score at necropsy, Caecum score", "setting": "[2]; [5]", "result": 0.45}, {"measurement": "Mean lesion score at necropsy, Liver score", "setting": "[2]; [5]", "result": 0.00}, {"measurement": "Protection against the infection by Histomonas meleagridis (in words)", "setting": "[2]; turkeys, 550 g/MT of feed", "result": "does provide active protection"}, {"measurement": "Liver and caecal lesion scores (in words)", "setting": "[2]; turkeys, apramycin continuously in the feed", "result": "reduced significantly"}, {"measurement": "Average Weight at D40", "setting": "[3]", "result": 1.40, "unit": "kg"}, {"measurement": "In-vivo use against histomoniasis (in words)", "setting": "[4]; 300 ppm in broilers", "result": "ineffective"}, {"measurement": "Weight gain (in words)", "setting": "[4]; 300 ppm in broilers", "result": "no amelioration"}, {"measurement": "Caecal histomoniasis lesions (in words)", "setting": "[4]; [6]", "result": "No amelioration"}, {"measurement": "Liver lesions / liver lesion scores (in words)", "setting": "[4]; [6]", "result": "some reduction"}]}]}
